From patent US20260167622A1, “PAN-KRAS DEGRADING AGENT, AND PREPARATION METHOD THEREFOR AND USE THEREOF” (LEADINGTAC PHARMACEUTICAL (SHAOXING) CO., LTD., priority 2022, published 2026)

Experiments:
Assay type in all cases: cell-based
[1] = biological target: T1, KRAS G12D protein in AsPc-1 cells (Homo sapiens, UniProt P01116, G12D); assay: KRAS degradation assay (Western Blot) in AsPc-1 cells; details: for DC50: 24 h; for Dmax: ASPC1, 24 h
T1 construct: endogenous in cells; host or cells: AsPc-1
T1 sequence (P01116 1-188 isoform P01116-2 G12D): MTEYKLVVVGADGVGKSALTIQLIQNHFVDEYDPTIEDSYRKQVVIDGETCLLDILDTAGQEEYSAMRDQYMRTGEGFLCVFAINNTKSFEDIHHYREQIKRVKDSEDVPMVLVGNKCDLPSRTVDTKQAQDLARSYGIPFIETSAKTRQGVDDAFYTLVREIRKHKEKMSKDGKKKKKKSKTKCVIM
Source text: (§1) Test Example 5: KRAS G12C, KRAS G12D, KRAS G12V, KRAS G13D, and KRAS WT (Expanded) Degradation Assays
(§2) The degradation effect of the compounds on KRAS was investigated on KRAS G12C mutant human non-small cell lung cancer cell NCI-H358, KRAS G12D mutant human metastatic pancreatic cancer cell AsPc-1, KRAS G12D mutant human lung cancer cell A427, KRAS G12V mutant human colorectal cancer cell SW620, KRAS G12V mutant human lung cancer cell SW900, KRAS G13D mutant human colorectal cancer epithelial cell DLD-1, and KRAS WT human gastric cancer cell MKN-1. The specific procedures were as follows: 0.95 mL of cells were seeded into each well of a 24-well cell culture plate to achieve a cell density of 5×10^5 cells/well; and the cell plate was incubated in an incubator at 37° C. with 5% CO2 overnight. Then 50 μL of the compound solution after dilution was added to each of the wells with the corresponding cells, so that the final concentration of the compound was in a range of 0.03-3000 nM. The final concentration of DMSO was 0.25%. After the compounds were added, the cell plate was incubated in an incubator at 37° C. with 5% CO2 for 24 h. The culture medium in the 24-well cell culture plate was then removed, and the plate was washed twice with 1×PBS (KeyGEN). 120 μL of RIPA (strong) lysis buffer (Beyotime) (supplemented with 1 mM phenylmethylsulfonyl fluoride, a protease inhibitor mixture (Beyotime), and a protease phosphatase inhibitor mixture (Beyotime)) was added to lyse adherent SW900 cells at the bottom of the cell culture plate. After the plate was left to stand on ice for 30 min, the protein lysate in each well was transferred to a 1.5 mL centrifuge tube and centrifuged at 15000 g for 20 min at 4° C. The cell lysate supernatants after centrifugation were cryopreserved in a refrigerator at −80° C. for later use.
(§3) After the samples of the cell lysate supernatants that had been prepared were thawed from the refrigerator at −80° C., the total protein concentrations of the cell lysates were determined using a BCA protein quantification kit (Tiangen). The total protein concentrations of the samples were then adjusted to 0.5 μg/μL with PBS and 5×SDS-PAGE protein loading buffer (Beyotime), and the samples were incubated in a water bath at 100° C. for 15 min. The samples were then incubated in an ice bath for 5 min and centrifuged at 14000 g for 1 min at 4° C., and the supernatants were mixed well as loading samples for the Western Blot assay. The samples were loaded into wells of a 10% precast gel (KeyGEN) with a loading volume of 10 μL (total protein: 5 μg), a sufficient Tris-MOPS-SDS running buffer (Adamas) was added, and then electrophoresis was performed at a constant voltage of 120 V for 55 min. After the electrophoresis, the proteins on the gel were transferred to PVDF membranes at a constant current of 250 mA for 55 min. After the membrane transfer, the PVDF membranes were incubated in 1× Quick Block blocking buffer (Beyotime)at room temperature for 30 min. After the blocking, the PVDF membranes were separately incubated at 4° C. overnight with the KRAS antibody (Abcam) diluted in a ratio of 1:1000 and the β-actin antibody (Abcam) diluted in a ratio of 1:2000 in 5% BSA as the diluent, and then washed with 1×TBST buffer (2.4 g of Tris, 8.8 g of NaCl, 1.5 mL of Tween 20, with pH adjusted to 7.4, with the volume brought to 1 L) 3 times for 10 min/time. The membranes were incubated with a secondary antibody (Abcam) diluted in 5% BSA at room temperature for 2 h, and then washed with 1×TBST buffer 3 times for 10 min/time. Finally, the membranes were incubated with Clarity Western ECL Substrate (BIO-RAD) for 5 min for luminescence and color development, and a ChemiScope 6200 Touch chemiluminescence imaging system (Clinx) was used for color development and protein mapping. Gray value analysis of the protein maps was performed using the chemiluminescence analysis software (Clinx). […]

[2] = tested on: KRAS G12D mutant human metastatic pancreatic cancer cell AsPc-1; assay: 3D cell proliferation inhibition assay, AsPc-1; details: ASPC1, 168 h, 3D culture, 7 days, CTG
Procedure, shortened: (§4)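 Cells were seeded in low-adsorption 96-well plates at 5×10^2 cells/well (MKN1 at 1×10^3) with compounds at final 10000-0.026 nM, 0.2% DMSO, and grown 7 days at 37° C. CTG luminescence gave inhibition relative to DMSO and medium-only controls, and IC50 came from a log-concentration curve fit.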

[3] = biological target: T2, KRAS G12C protein in NCI-H358 cells (Homo sapiens, UniProt P01116, G12C); assay: KRAS degradation assay (Western Blot) in NCI-H358 cells; details: 24 h
T2 construct: endogenous in cells; host or cells: NCI-H358
T2 sequence (P01116 1-188 isoform P01116-2 G12C): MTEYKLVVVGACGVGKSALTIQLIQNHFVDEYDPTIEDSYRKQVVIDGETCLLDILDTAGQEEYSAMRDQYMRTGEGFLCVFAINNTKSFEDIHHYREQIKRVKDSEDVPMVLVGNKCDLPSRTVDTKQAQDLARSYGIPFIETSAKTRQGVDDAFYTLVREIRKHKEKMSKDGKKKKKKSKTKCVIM
Source text: as §1, §2, §3

[4] = tested on: KRAS G13D mutant human colorectal cancer epithelial cell DLD-1; assay: 3D cell proliferation inhibition assay, DLD-1; details: DLD-1, 168 h, 3D culture, 7 days, CTG
Procedure, shortened: as §4

[5] = tested on: KRAS G12C mutant human non-small cell lung cancer cell NCI-H358; assay: 3D cell proliferation inhibition assay, NCI-H358; details: NCI-H358, 168 h, 3D culture, 7 days, CTG
Procedure, shortened: as §4

[6] = biological target: T3, KRAS WT (expanded) protein in MKN1 cells (Homo sapiens, UniProt P01116); assay: KRAS degradation assay (Western Blot) in MKN1 cells; details: for DC50: 24 h; for Dmax: MKN-1, 24 h
T3 construct: endogenous in cells; host or cells: MKN1 (MKN-1)
T3 sequence (P01116 1-188 isoform P01116-2): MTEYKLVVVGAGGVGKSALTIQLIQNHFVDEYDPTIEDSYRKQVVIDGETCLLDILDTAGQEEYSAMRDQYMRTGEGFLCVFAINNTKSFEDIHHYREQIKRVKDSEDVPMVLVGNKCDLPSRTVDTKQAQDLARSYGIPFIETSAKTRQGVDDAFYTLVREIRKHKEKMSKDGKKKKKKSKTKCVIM
Source text: as §1, §2, §3

[7] = tested on: KRAS G12V mutant human colorectal cancer cell SW620; assay: 3D cell proliferation inhibition assay, SW620; details: SW-620, 168 h, 3D culture, 7 days, CTG
Procedure, shortened: as §4

[8] = biological target: T4, KRAS G12V protein in SW620 cells (Homo sapiens, UniProt P01116, G12V); assay: KRAS degradation assay (Western Blot) in SW620 cells; details: for DC50: 24 h; for Dmax: SW-620, 24 h
T4 construct: endogenous in cells; host or cells: SW620
T4 sequence (P01116 1-188 isoform P01116-2 G12V): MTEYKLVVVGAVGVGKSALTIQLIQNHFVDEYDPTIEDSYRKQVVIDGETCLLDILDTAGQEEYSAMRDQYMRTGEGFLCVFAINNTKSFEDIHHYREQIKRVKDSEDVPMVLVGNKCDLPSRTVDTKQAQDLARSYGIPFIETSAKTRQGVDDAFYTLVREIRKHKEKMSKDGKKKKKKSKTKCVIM
Procedure, shortened: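 DC50 and Dmax were fitted from KRAS band intensity, corrected to β-actin and expressed against untreated control, after Western blotting of 5 μg lysate protein. Cells were exposed for 24 h at 37 °C to 0.03-3000 nM compound (final) with 0.25% DMSO.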

[9] = biological target: T5, KRAS G13D protein in DLD-1 cells (Homo sapiens, UniProt P01116, G13D); assay: KRAS degradation assay (Western Blot) in DLD-1 cells; details: 24 h
T5 construct: endogenous in cells; host or cells: DLD-1
T5 sequence (P01116 1-188 isoform P01116-2 G13D): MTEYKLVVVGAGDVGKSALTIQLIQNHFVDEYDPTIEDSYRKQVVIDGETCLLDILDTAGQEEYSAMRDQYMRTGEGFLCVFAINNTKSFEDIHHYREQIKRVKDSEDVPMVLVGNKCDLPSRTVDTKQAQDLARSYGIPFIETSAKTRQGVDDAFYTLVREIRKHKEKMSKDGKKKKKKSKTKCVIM
Procedure, shortened: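 After a 24 h treatment spanning 0.03–3000 nM, remaining KRAS protein is quantified by ECL immunoblot against a β-actin internal reference. Degradation is expressed relative to vehicle-treated cells and curve-fitted for DC50 and Dmax.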

[10] = tested on: KRAS WT human gastric cancer cell MKN1; assay: 3D cell proliferation inhibition assay, MKN1; details: MKN-1, 168 h, 3D culture, 7 days, CTG
Procedure, shortened: as §4

With `C#Cc1c(F)ccc2cc(O)cc(-c3ncc4c(N5CCC[C@@](C)(O)C5)nc(OC[C@H](C)CN5CCN(CC6CCC7(CC6)CCN(C(=O)c6ccc(C)c(N8CCC(=O)NC8=O)c6)CC7)CC5)nc4c3F)c12` [Example 47, 1-(5-(9-((4-((R)-3-((7-(8-ethynyl-7-fluoro-3-hydroxynaphthalen-1-yl)-8-fluoro-4-((R)-3-hydroxy-3-methylpiperidin-1-yl)pyrido[4,3-d]pyrimidin-2-yl)oxy)-2-methylpropyl)piperazin-1-yl)methyl)-3-azaspiro[5.5]undecane-3-carbonyl)-2-methylphenyl)dihydropyrimidine-2,4(1H,3H)-dione] as the compound, how does the DC50 [1] read?
The DC50 was 18.7 nM.

What about the Dmax [1] of the same compound?
Its Dmax is 93.3%.

And the IC50 [2]?
Its IC50 is 6.48 nM.

What about the DC50 [3] of the same compound?
Its DC50 is 1.7 nM.

And the Dmax [3]?
The Dmax was 88.9%.

What about the IC50 [4] of the same compound?
The IC50 was 3.55 nM.

What about the IC50 [5] of the same compound?
The IC50 was 2.33 nM.

And the DC50 [6]?
Its DC50 is 0.28 nM.

What about the Dmax [6] of the same compound?
The Dmax was 97.4%.

And the IC50 [7]?
The IC50 was 1.92 nM.

What about the DC50 [8] of the same compound?
The DC50 was 0.99 nM.

And the Dmax [8]?
Its Dmax is 100%.

And the DC50 [9]?
The DC50 was 2.05 nM.

What about the Dmax [9] of the same compound?
The Dmax was 100%.

What about the IC50 [10] of the same compound?
Its IC50 is 2.33 nM.

For `[2H]C([2H])([2H])Oc1ccc(C(=O)N2CCC3(CCC(CN4CCN(CC5(COc6nc(N7CCC[C@@](C)(O)C7)c7cnc(-c8cc(O)cc9ccc(F)c(C#C)c89)c(F)c7n6)CC5)CC4)CC3)CC2)cc1N1CCC(=O)NC1=O` [Example 170, (R)-1-(5-(9-((4-((1-(((7-(8-ethynyl-7-fluoro-3-hydroxynaphthalen-1-yl)-8-fluoro-4-(3-hydroxy-3-methylpiperidin-1-yl)pyrido[4,3-d]pyrimidin-2-yl)oxy)methyl)cyclopropyl)methyl)piperazin-1-yl)methyl)-3-azaspiro[5.5]undecane-3-carbonyl)-2-(methoxy-d3)phenyl)dihydropyrimidine-2,4(1H,3H)-dione], which DC50 [1] is on record?
The DC50 was 5.53 nM.

What about the Dmax [1] of the same compound?
Its Dmax is 100%.

What about the IC50 [2] of the same compound?
The IC50 was 6.31 nM.

And the DC50 [3]?
Its DC50 is 2.65 nM.

What about the Dmax [3] of the same compound?
The Dmax was 96.1%.

And the IC50 [4]?
Its IC50 is 6.28 nM.

What about the IC50 [5] of the same compound?
The IC50 was 2.49 nM.

What about the DC50 [6] of the same compound?
Its DC50 is 0.76 nM.

And the Dmax [6]?
The Dmax was 99.3%.

And the IC50 [7]?
The IC50 was 2.59 nM.

What about the DC50 [8] of the same compound?
Its DC50 is 2.35 nM.

What about the Dmax [8] of the same compound?
The Dmax was 97.7%.

What about the DC50 [9] of the same compound?
Its DC50 is 1.96 nM.

What about the Dmax [9] of the same compound?
Its Dmax is 99.9%.

What about the IC50 [10] of the same compound?
Its IC50 is 6.7 nM.

For `C#Cc1c(F)ccc2cc(O)cc(-c3ncc4c(N5CCC[C@@](C)(O)C5)nc(OC[C@H](C)CN5CCN(CC6CCC7(CC6)CCN(C(=O)c6ccc(Cl)c(N8CCC(=O)NC8=O)c6)CC7)CC5)nc4c3F)c12` [Example 48, 1-(2-chloro-5-(9-((4-((R)-3-((7-(8-ethynyl-7-fluoro-3-hydroxynaphthalen-1-yl)-8-fluoro-4-((R)-3-hydroxy-3-methylpiperidin-1-yl)pyrido[4,3-d]pyrimidin-2-yl)oxy)-2-methylpropyl)piperazin-1-yl)methyl)-3-azaspiro[5.5]undecane-3-carbonyl)phenyl)dihydropyrimidine-2,4(1H,3H)-dione], which IC50 [2] is on record?
Its IC50 is 23.2 nM.

What about the DC50 [3] of the same compound?
Its DC50 is 17.2 nM.

What about the Dmax [3] of the same compound?
Its Dmax is 100%.

And the IC50 [4]?
The IC50 was 2.61 nM.

What about the IC50 [5] of the same compound?
The IC50 was 85.5 nM.

And the DC50 [6]?
The DC50 was 2.33 nM.

And the Dmax [6]?
The Dmax was 100%.

What about the IC50 [7] of the same compound?
Its IC50 is 5.17 nM.

What about the DC50 [8] of the same compound?
Its DC50 is 1.02 nM.

What about the Dmax [8] of the same compound?
Its Dmax is 100%.

What about the DC50 [9] of the same compound?
The DC50 was 1.34 nM.

And the Dmax [9]?
The Dmax was 100%.

And the IC50 [10]?
The IC50 was 21.2 nM.

For `[2H]C([2H])([2H])Oc1ccc(C(=O)N2CCC3(CCC(CN4CCN(C[C@@H](C)COc5nc(N6CCC[C@@](C)(O)C6)c6cnc(-c7cc(O)cc8ccc(F)c(C#C)c78)c(F)c6n5)CC4)CC3)CC2)cc1N1CCC(=O)NC1=O` [Example 164, 1-(5-(9-((4-((R)-3-((7-(8-ethynyl-7-fluoro-3-hydroxynaphthalen-1-yl)-8-fluoro-4-((R)-3-hydroxy-3-methylpiperidin-1-yl)pyrido[4,3-d]pyrimidin-2-yl)oxy)-2-methylpropyl)piperazin-1-yl)methyl)-3-azaspiro[5.5]undecane-3-carbonyl)-2-(methoxy-d3)phenyl)dihydropyrimidine-2,4(1H,3H)-dione], which DC50 [1] is on record?
The DC50 was 5.91 nM.

And the Dmax [1]?
The Dmax was 99.6%.

What about the IC50 [2] of the same compound?
Its IC50 is 12.1 nM.

What about the DC50 [3] of the same compound?
The DC50 was 1.11 nM.

What about the Dmax [3] of the same compound?
Its Dmax is 98.2%.

What about the IC50 [4] of the same compound?
Its IC50 is 3.9 nM.

What about the IC50 [5] of the same compound?
Its IC50 is 4.66 nM.

What about the DC50 [6] of the same compound?
The DC50 was 1.25 nM.

And the Dmax [6]?
Its Dmax is 99.5%.

And the IC50 [7]?
Its IC50 is 3.76 nM.

What about the DC50 [8] of the same compound?
The DC50 was 7.48 nM.

And the Dmax [8]?
The Dmax was 99.5%.

And the DC50 [9]?
Its DC50 is 4.39 nM.

What about the Dmax [9] of the same compound?
The Dmax was 100%.

And the IC50 [10]?
The IC50 was 22.6 nM.
